# According to US11667612B2, “Compositions and methods for delivering pharmaceutical agents” (Arizona Board of Regents on Behalf of the University of …, priority 2017, dated 2023):
# “And” between values parts separate entries of the source, which are not always exact repeats. Identical values can stand only once.
# Experiments:
# [1] = Karl Fischer coulometric titration, residual water content; type: physicochemical
# [2] = tested on: H358 pulmonary cell line
# Procedure: (§1) Cell-based assays are often used to determine if test molecules have effects on cell proliferation or show direct cytotoxicity effects that eventually leads to cell death. The effects of TMP formulations were analyzed by measuring the response of lung adenocarcinoma cells at different concentrations of the drug. […] The H348 pulmonary cell line is a human bronchoalveolar epithelial cell line similar to alveolar type II cells and express lung surfactant associated protein A (SP-A) (Acosta M F, et al., Current pharmaceutical design. 2016; 22(17):2522-2531). […]
# (§2) As previously reported (Acosta et al., 2014, supra), both cell lines were seeded in 96-well plates at 5000 cells/well and 100 μl/well and allowed to attach for 48 hours. […] At this point, the fluorescence intensity was detected at 544 nm (excitation) and 590 nm (emission) using a Synergy H1 Multi-Mode Reader (BioTek Instruments Inc., Winooski, Vt.).
# (§3) Cell-based assays are often used to determine if test molecules have effects on cell proliferation or show direct cytotoxicity effects that eventually leads to cell death. The effects of TMP formulations were analyzed by measuring the response of lung adenocarcinoma cells at different concentrations of the drug. […]
# [3] = tested on: monocrotaline (MCT) rat model of PH; assay: In vivo hemodynamic efficacy study in PH induced rats (monocrotaline model); parameters: species or system Sprague Dawley rats; conditions: for Right ventricle systolic pressure (RVSP): individual rats, inhaled dry powder 10 mg/kg for 14 days
# Procedure: In vivo studies were conducted in a monocrotaline (MCT) rat model with the purpose of testing the efficacy of TMP in decreasing PH. A total of 30 male Sprague Dawley rats (280-350 g) were used in this study. Rats were purchased from Charles River Laboratories International Inc. (Wilmington, Mass.). Rats were weighted weekly to monitor their health. PH was induced by injecting 60 mg/kg of MCT via intraperitoneally. The animals were divided into 5 groups (n=5) into the following categories: 1) Naïve (control), 2) Naïve+TMP, 3) MCT (PH induced) 4) MCT+ treated with vehicle (air), 5) MCT+ treated with TMP. Two weeks after MCT administration, the rats started to get the treatment via aerosolization of a dry powder formulation of SD TMP (10 mg/kg) using a Penn Century Dry Powder Insufflator™—Model DP-4M for 14 days. Right ventricle systolic pressure (RVSP) hemodynamics were performed after 2 weeks and 4 weeks after MCT administration by inserting a customized pressure transducer catheter (SPR-513, Millar Instruments, Houston, Tex.), into the right ventricle (RV) via the right jugular vein and right atrium. The transducer was connected to a Millar Transducer Control Unit TC-510 and PL3504 PowerLab 4/35 data acquisition system (ADInstruments, Inc., Colorado Springs, Colo.). At the end of pressure recording, the animals were euthanized.
# [4] = In vitro aerosol dispersion performance, Next Generation Impactor (NGI); type: physicochemical; conditions: for Emitted Fraction (%) / Emitted dose / Fine Particle Dose / Fine Particle Fraction (%) / GSD / MMAD / Respirable Dose / Respirable Fraction (%): NGI 60 L/min
# Procedure: In accordance with US Pharmacopeia (USP) Chapter <601> specification on aerosols and using conditions similar to previously reported (Meenach S A, et al., AAPS PharmSciTech. 2014; 15(6):1574-1587; Muralidharan P, et al., Molecular Systems Design & Engineering. 2016), the in vitro aerosol dispersion properties of the dry powder particles were determined using the Next Generation Impactor® (NGI®) with a stainless steel induction port (USP throat) attachment (NGI® Model 170), equipped with specialized stainless steel NGI® gravimetric insert cups (MSP Corporation, Shoreview, Md., USA). The NGI® was coupled with a Copley TPK 2000 critical flow controller connected to a Copley HCP5 vacuum pump, and the airflow rate (Q), was measured and adjusted prior to each experiment using a Copley DFM 200 flow meter (Copley Scientific, UK).
# The mass of powder deposited on each stage was quantified by a gravimetric method using type A/E glass fiber filters with diameter 55 mm (PALL Corporation, Port Washington, N.Y.) and 75 mm (Advance, Japan). Quali-V clear HPMC size 3 inhalation grade capsules (Qualicaps, North Carolina) filled with about 10 mg of powder were used. Three capsules were used in each experiment. In vitro aerosolization was done in triplicate (n=3) under ambient conditions. The NGI™ was operated at a flow rate of 601 min^1 with an actuation time of 10 s through the inhaler. The glass fiber filter was measured gravimetrically before and after actuation, on each stage, to determine the particle stage deposition. The fine particle dose (FPD), fine particle fraction (FPF), respirable fraction (RF), and emitted dose (ED) were calculated using the following equations:
# [formula] [formula] [formula] The mass mean aerodynamic diameter (MMAD) and geometric standard deviation (GSD) of aerosol dispersion profiles were determined using a Mathematica (Wolfram Research Inc., Champaign, Ill.) program ((Meenach S A, et al., AAPS PharmSciTech. 2014; 15(6):1574-1587; Muralidharan P, et al., Molecular Systems Design & Engineering. 2016). The aerosol dispersion performance was tested using three FDA approved inhalers Handihaler®, Aerolizer®, and Neohaler®. In Vitro Cell Dose Response Assay
# In accordance with US Pharmacopeia (USP) Chapter <601> specification on aerosols and using conditions similar to previously reported, the in vitro aerosol dispersion properties of the dry powder particles were determined using the Next Generation Impactor® (NGI®) with a stainless steel induction port (USP throat) attachment (NGI® Model 170), equipped with specialized stainless steel NGI® gravimetric insert cups (MSP Corporation, Shoreview, Md., USA). The NGI® was coupled with a Copley TPK 2000 critical flow controller connected to a Copley HCP5 vacuum pump, and the airflow rate (Q), was measured and adjusted prior to each experiment using a Copley DFM 200 flow meter (Copley Scientific, UK).
# The mass of powder deposited on each stage was quantified by gravimetric method using type A/E glass fiber filters with diameter 55 mm (PALL Corporation, Port Washington, N.Y.) and 75 mm (Advance, Japan). Quali-V clear HPMC size 3 inhalation grade capsules (Qualicaps, North Carolina) filled with about 10 mg of powder were used. Three capsules were used in each experiment. In vitro aerosolization was done in triplicate (n=3) under ambient conditions. The NGI™ was operated at a flow rate of 601 min^−1 with a delay time of 10 s before actuation of the inhaler, followed by 10 s of airflow through the inhaler. The glass fiber filter was measured gravimetrically before and after actuation, on each stage, to determine the particle stage deposition. The fine particle dose (FPD), fine particle fraction (FPF), respirable fraction (RF), and emitted dose (ED) were calculated using the 3-6 equations:
# [5] = Laser diffraction particle sizing and size distribution; type: physicochemical
# Procedure: Particle size and size distributions of the particles were determined by laser diffraction with the SALD-7101 (Shimadzu Scientific Instruments, Japan) using conditions previously reported (Li X, Mansour H M., AAPS PharmSciTech. December 2011; 12(4):1420-1430; Meenach S A, et al., Int J Nanomedicine. 2013; 8:275-293; Wu X, et al., Drug design, development and therapy. 2013; 7:59-72; Wu X, et al., Int J Nanomedicine. 2013; 8:1269-1283) for measurement of the mean size and size distribution of SD particles in aqueous suspension. Samples were dispersed in ultrapure water and ultrasonicated for 10 s in water bath ultrasonicator Branson 7500 before measuring particle size. Sample particle dispersion was immediately transferred to particle size measuring cell and kept stirring during measurement in nano particle size analyzer. The low refractive index of 1.50-0.00i was used. Volume-based measurements were obtained. DV10, DV50, and DV90 were used as particle size characterization parameters. The span value was calculated using the equation defined as Span=[(DV90−DV10)/DV50] Equation 1. X-Ray Powder Diffraction (XRPD)
# [6] = tested on: A549 pulmonary cell line
# Procedure: as §1, §2, §3
# [7] = tested on: Calu-3 lung epithelial cells; assay: In vitro transepithelial electrical resistance (TEER) analysis; type: cell-based, human; conditions: Calu-3, AIC, 100 μM
# Procedure: The cells were seeded at 500,000 cells/ml in Costar Transwells® (0.4 μm polyester membrane, 12 mm for a 12-well plate) with 0.5 ml of media on the apical side and 1.5 ml of media on the basolateral side. Media was changed every other day from the basolateral and apical side. After 10 days of growth, when the cells reached a TEER value of about 1000 Ω/cm^2 which is an indicator of a confluent monolayer at liquid covered culture (LCC) the media was removed from both sides and 800 μl of media was added to the basolateral side of the Transwells to facilitate air-interface culture (AIC) conditions. The TEER responses of the cells were measured with an Endohom 12 mm Culture Cup (World Precision Instruments, Sarasota, Fla.). […] TEER values were then recorded for up to 7 days after aerosol treatment, as previously reported (Meenach S A, 2014, supra; Meenach S A, et al., April 2016; 48(4):1701-1709).
# The cells were seeded at 500,000 cells/ml in Costar Transwells® (0.4 μm polyester membrane, 12 mm for a 12-well plate) with 0.5 ml of media on the apical side and 1.5 ml of media on the basolateral side. […] The TEER responses of the cells were measured with an Endohom 12 mm Culture Cup (World Precision Instruments, Sarasota, Fla.). […] TEER values were then recorded for up to 7 days after aerosol treatment, as previously reported (Meenach et al., 2014, supra; Meenach et al., 2016, supra).
# [8] = Aerolizer, listed as spray dried TMP
# [9] = Handihaler, listed as spray dried TMP
# [10] = Neohaler, listed as spray dried TMP
# [11] = laser diffraction, aqueous suspension, volume-based
structure (smiles),measurement,setting,value
"Cc1nc(C)c(C)nc1C [Raw TMP, tetramethylpyrazine, reference compound]",Residual water content,[1],0.633 ± 0.251% w/w
same,Effect on cell viability,[2],decrease
"Cc1nc(C)c(C)nc1C [SD TMP, tetramethylpyrazine]",Right ventricle systolic pressure (RVSP),[3]; Group 2 (Naive + TMP),20-25 mmHg and ~25 mmHg and 23.8990 mmHg and 24.7030 mmHg and 26.0550 mmHg and 19.6940 mmHg and 20.8110 mmHg and 24.2410 mmHg
same,Right ventricle systolic pressure (RVSP),"[3]; Group 5 (MCT + TMP), 4 weeks after MCT",58.6830 mmHg and 62.4200 mmHg and 43.3890 mmHg and 59.8200 mmHg and 78.2010 mmHg and 70.5310 mmHg
same,Body weight,"[3]; Group 5 (MCT + TMP), measured weekly",significant loss of weight
same,"Decrease of RVSP relative to group 3 (MCT, 4 weeks)","[3]; Group 5, after two weeks of aerosol treatment",20-30 mmHg
same,Emitted Fraction (%),[4]; Aerolizer,88%
same,Emitted dose,[4]; Aerolizer,79.98 mg
same,Fine Particle Dose,[4]; Aerolizer,1.15 mg
same,Fine Particle Fraction (%),[4]; Aerolizer,1.41%
same,GSD,[4]; Aerolizer,2.88
same,MMAD,[4]; Aerolizer,15.23 μm
same,Respirable Dose,[4]; Aerolizer,8.16 mg
same,Respirable Fraction (%),[4]; Aerolizer,14.86 ± 8.0%
same,Emitted Fraction (%),[4]; [8],88.76 ± 7.27%
same,Fine Particle Fraction (%),[4]; [8],1.41 ± 0.57%
same,MMAD,[4]; [8],15.23 μm
same,Emitted Fraction (%),[4]; Handihaler,100%
same,Emitted dose,[4]; Handihaler,86.92 mg
same,Fine Particle Dose,[4]; Handihaler,3.33 mg
same,Fine Particle Fraction (%),[4]; Handihaler,3.33%
same,GSD,[4]; Handihaler,5.28
same,MMAD,[4]; Handihaler,68.4 μm
same,Respirable Dose,[4]; Handihaler,37.24 mg
same,Respirable Fraction (%),[4]; Handihaler,8.9 ± 3.87%
same,Emitted Fraction (%),[4]; [9],100 ± 2.03%
same,Fine Particle Fraction (%),[4]; [9],3.83 ± 0.42%
same,MMAD,[4]; [9],68.4 μm
same,Emitted Fraction (%),[4]; Neohaler,88%
same,Emitted dose,[4]; Neohaler,79.28 mg
same,Fine Particle Dose,[4]; Neohaler,3.48 mg
same,Fine Particle Fraction (%),[4]; Neohaler,4.36%
same,MMAD,[4]; Neohaler,43.73 μm
same,Respirable Dose,[4]; Neohaler,25.19 mg
same,Respirable Fraction (%),[4]; Neohaler,14.87 ± 7.30%
same,Emitted Fraction (%),[4]; [10],88.41 ± 6.70%
same,Fine Particle Fraction (%),[4]; [10],4.36 ± 0.65%
same,MMAD,[4]; [10],43.73 μm
same,Particles deposited on the first NGI stage,[4]; in vitro aerosol stage deposition,above 90%
same,Particle sizing span value,[5]; (Dv90-Dv10)/Dv50,1.684±0.645
same,Particle size distribution (size range),[5]; laser diffraction,4-14 μm
same,Particle sizing Dv10,[5]; [11],4.186±0.701 μm
same,Particle sizing Dv50,[5]; [11],6.156±1.47 μm and 6.156 ± 1.147 μm
same,Particle sizing Dv90,[5]; [11],14.552±4.928 μm
same,Effect on cell viability,[6],didn't affect the cell viability
same,Amount of drug found not to be toxic to pulmonary cell lines,"[6]; human, 72 h",up to 7 mg
same,TEER (electrical resistance),[7]; 3 hours after treatment,decreases drastically
same,TEER (electrical resistance),[7]; seven days of culturing after treatment,resistance was regained
same,Residual water content,[1],0.368±0.103 % w/w
same,Effect on cell viability,[2],didn't affect the cell viability
